Experimental data taken from patent US7951906B2, “Compounds capable of interacting with a cell-surface fibroblast growth factor receptor” (Enkam Pharmaceuticals A/S, priority 2002, dated 2011).
Positions of bridges follow the written chain, without caps; N, C: chain ends. Chains are numbered I, II in the order given. No end group written: not given here.

Tests used:
hippocampal neurons = assay: Neurite outgrowth from hippocampal neurons; type: cell-based, rat; settings: for stimulation of neurite outgrowth / length of neurites: 24 h, 5 μM F3 module 2; for retained stimulatory effect relative to the entire (non-mutated) FG loop peptide: peptides 50 μM
Experimental: Dissociated neurons from embryonic rat hippocampus (embryonic day 19), prepared as described (Skladchikova et al., 1999), were grown on Permanox plastic (Nunc) for 24 h at a density of 6000 cells/cm^2, at 37° C., 5% CO2 in Neurobasal medium containing 20 mM Hepes, 100 U/ml penicillin, 100 μg/ml streptomycin, 0.4% BSA supplemented with B27 (Gibco BRL) and the below specified compounds. After 24 h, cells were fixed with paraformaldehyde, stained with Coomassie Brilliant Blue R250 and the length of neurites was measured as described (Skladchikova et al, 1999).

FGFR1 Ig modules 2, 3 = biological target: T1, FGFR1 Ig modules 2, 3 (Mus musculus, UniProt P16092); assay: SPR binding to immobilized FGFR Ig modules 2, 3; settings: for coefficient of dissociation: immobilized FGFR modules 2, 3
T1 construct: amino acids 249-365 and 141-365 of FGFR (swissprot p16092), respectively; made in house; host or cells: Drosophila S2 cells
T1 sequence (P16092 141-365): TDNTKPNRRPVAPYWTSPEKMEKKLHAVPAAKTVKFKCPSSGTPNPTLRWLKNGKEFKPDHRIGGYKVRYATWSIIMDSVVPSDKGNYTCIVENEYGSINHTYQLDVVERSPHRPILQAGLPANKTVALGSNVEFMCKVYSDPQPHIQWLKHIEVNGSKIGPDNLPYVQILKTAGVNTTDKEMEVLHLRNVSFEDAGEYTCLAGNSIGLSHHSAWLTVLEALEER
Excerpt: The NCAM F3 modules 1, 2 (without expression of exons a, AAG), and FGFR1 Ig modules 2, 3 were produced using rat NCAM cDNA and mouse FGFR1 (IIIC iso-form) cDNA. The F3 module 1 and the combined F3 modules 1, 2 consist of […] (SEQ ID NO:173) and amino acids 507-611 and 507-705 of NCAM (swissprot p13596), respectively. […] The FGFR Ig module 2 consists of […] […] The FGFR Ig module 3 and the combined Ig modules 2, 3 consist of […] (SEQ ID NO:174) and amino acids 249-365 and 141-365 of FGFR (swissprot p16092), respectively. […] All the proteins were purified by affinity chromatography using Ni2^+−NTA resin (Qiagen, USA) and/or ion exchange chromatography and gel filtration. ^15N-labelled F3 module 2 was produced as described (Thomsen et al., 1996). The NCAM Ig modules 1, 2 and 3 (RV and amino acids 20-308 of rat NCAM, swissprot p13596) was produced as described (Soroka et al., 2002).
The flow-rate was 5 μl/min. […] The FGFR Ig modules 2, 3 were immobilized on a sensor chip CM5 using amine coupling kit (Biosensor AB) as follows: 1) the two halves of the chip (designated Fc1 and Fc2) were activated by 20 μl activation solution; 2) the protein was immobilized on Fc1 using 12 μl 20 μg/ml protein in 10 mM sodium phosphate buffer pH 6.0; 3) Fc1 and Fc2 were blocked by 35 μl blocking solution. […] The resulting curve was used for analysis.

human FGFR1 = biological target: T2, human FGFR1 (Homo sapiens, UniProt P11362); assay: FGFR1 phosphorylation, Assay 1 (TREX-293 cells, StrepII-tagged FGFR1); type: cell-based; settings: 20 min, 5 μM F3 module, 2.5 μM dendrimeric FG loop peptide
T2 construct: expressed in transfected cells; host or cells: TREX-293 cells (Invitrogen), Flp-In system
Experimental: Assay 1: TREX-293 cells (Invitrogen) were stably transfected with human FGFR1 having a C-terminal StrepII-tag (IBA biotech), using the Flp-In system (Invitrogen). For the study of phosphorylation: ˜2×10^7 cells were starved overnight before stimulation for 20 min with the specified compounds. Cells were lysed in PBS with 1% NP-40 and phosphatase inhibitors cocktail set II (Calbiochem). The cleared cell lysates were incubated with 50 μl agarose-coupled anti-phosphotyrosine antibodies (4G10-AC, Upstate Biotechnologies) for 3 hrs at 4° C. Care was taken to calibrate the amount of cells employed, so that considerable increases in phosphorylated FGFR could be detected. The bound protein was washed, eluted using 150 mM phenyl phosphate (Sigma), precipitated by 12% trichloroacetic acid, washed in cold acetone and dissolved in SDS-PAGE sample buffer. Immunoblotting was performed using antibodies against the recombinant StrepII-tag (IBA biotech). For immunoprecipitation: ˜1×10^7 cells were transiently transfected with the 180 kDa NCAM isoform or a control vector. Cells were incubated for 24 h and then starved overnight. After lysis, FGFR was purified on a StrepTactin Minicolumn (IBA Biotech) according to the manufacturer's instructions, and analyzed by immunoblotting with polyclonal antibodies against human NCAM.

[1] = system: polyclonal antibody raised against the intact FGL-peptide; assay: Competitive ELISA of immunoreactivity with antibody raised against FGL-peptide; type: binding; settings: rabbit serum
Excerpt: Antibody specifically recognising an epitope comprising SEQ ID NO: 1 (FGL-peptide) were raised in rabbits according the standard procedure (Gill B M, Barbosa J A, Dinh T Q, Garrod S, O'Connor D T: Chromogranin B: isolation from pheochromocytoma, N-terminal sequence, tissue distribution and secretory vesicle processing. Regul Peptides 33:223-35, 1991). Synthetic FGL-peptide was coupled to a carrier protein, KLH (Keyhole Limpets Hemocyanin). The peptide was mixed with Freunds incomplete adjuvant and the mixture was injected into rabbits. 208 μg peptide was used per immunisation (per rabbit).
Antibodies (serum) were tested for specificity by competitive ELISA using a series FGL-peptide truncated variants according to the protocol described in R. J. Jenny, T. L. Messier, L. A. Ouellette, and W. R. Church, Methods Enzymol. 222, 400 (1993). 100% immunoreactivity was ob-served only with the intact FGL-peptide consisting of SEQ ID NO: 1.

T2 sequence (P11362 22-822): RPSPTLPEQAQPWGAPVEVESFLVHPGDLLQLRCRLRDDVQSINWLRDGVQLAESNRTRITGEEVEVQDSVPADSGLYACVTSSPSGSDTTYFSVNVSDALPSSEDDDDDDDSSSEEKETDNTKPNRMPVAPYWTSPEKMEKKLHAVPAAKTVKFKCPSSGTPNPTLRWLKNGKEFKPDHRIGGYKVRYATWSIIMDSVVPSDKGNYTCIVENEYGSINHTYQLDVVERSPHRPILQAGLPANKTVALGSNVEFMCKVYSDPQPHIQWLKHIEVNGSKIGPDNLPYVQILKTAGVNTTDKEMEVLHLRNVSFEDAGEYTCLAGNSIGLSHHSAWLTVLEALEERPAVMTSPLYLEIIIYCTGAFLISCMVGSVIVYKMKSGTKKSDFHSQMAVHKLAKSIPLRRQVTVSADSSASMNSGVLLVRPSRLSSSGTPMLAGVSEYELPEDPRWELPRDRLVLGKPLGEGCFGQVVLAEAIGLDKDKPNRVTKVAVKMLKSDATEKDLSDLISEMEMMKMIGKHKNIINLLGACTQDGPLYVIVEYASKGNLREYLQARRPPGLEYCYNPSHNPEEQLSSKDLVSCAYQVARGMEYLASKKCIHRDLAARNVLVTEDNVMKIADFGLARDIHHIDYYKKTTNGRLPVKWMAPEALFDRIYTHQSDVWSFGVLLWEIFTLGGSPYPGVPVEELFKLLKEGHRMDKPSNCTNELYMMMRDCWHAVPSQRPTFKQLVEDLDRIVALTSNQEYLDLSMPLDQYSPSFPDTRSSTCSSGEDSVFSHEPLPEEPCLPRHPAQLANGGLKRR

Q: For “SEQ ID NO:171: 11-amino acid fragment of SEQ ID NO: 5 (axonal-associated cell adhesion molecule), two amino acids truncated from the C-terminus (VAENSRGKNVA; Axonal-associated cell adhesion molecule [NCBI NP_446331] FGFR binding motif)”, which “stimulation of neurite outgrowth / length of neurites” value (hippocampal neurons; hippocampal neurons) is on record?
A: Its value is “capable of stimulation of neurite outgrowth”.

Q: And the “concentration of the peptide at maximal effect” value (hippocampal neurons; hippocampal neurons, neurite outgrowth)?
A: Its value is “about 0.3 μg/ml”.

Q: Which results are given for `Nc1ncnc2c1ncn2[C@@H]1O[C@H](COP(=O)(O)OP(=O)(O)CP(=O)(O)O)[C@@H](O)[C@H]1O` [AMP-PCP, reference compound]?
A: inhibition of the neuritogenic effect induced by the F3 module 2 (hippocampal neurons; 5 μM F3 module, ATP or AMP-PCP 0.4, 1.0 mM): complete inhibition; inhibition of the neuritogenic effect induced by the FG loop peptide (hippocampal neurons; 50 μM peptide, ATP or AMP-PCP 0.4, 1.0 mM): complete inhibition

Q: For “nonamer V^76-S^84: truncated version of the FG loop peptide, residues V^76-S^84 (VAENQQGKS; NCAM Fn III, 2 [Swiss-Prot P13591] FGFR binding motif (Variant))”, which “retained stimulatory effect relative to the entire (non-mutated) FG loop peptide” value (hippocampal neurons; hippocampal neurons) is on record?
A: Its value is “approximately 50%”.

Q: How did the coefficient of dissociation (FGFR1 Ig modules 2, 3) turn out when “I: EVYVVAENQQGKSKAKK / II: EVYVVAENQQGKSKAK / III: EVYVVAENQQGKSKA / IV: EVYVVAENQQGKSKA (amide I:16-IV:C, I:17-II:C, II:16-III:C (inferred)) [dendrimeric FG loop peptide]” was run?
A: The coefficient of dissociation was 3.97±2.29×10^−3 s^−1.

Q: And the kon (FGFR1 Ig modules 2, 3; immobilized FGFR modules 2, 3, read-out: coefficient of association)?
A: The kon was 2070 ± 1.08e+06 M⁻¹ s⁻¹.

Q: And the “FGFR phosphorylation compared to the non-stimulated cells” value (human FGFR1)?
A: Its value is “substantially increase”.

Q: With “SEQ ID NO:151: truncated version of the FG loop peptide, residues A^77-K^83 of the NCAM F3 module 2 (AENQQGK; NCAM Fn III, 2 [Swiss-Prot P13591] FGFR binding motif (Variant))” as the molecule, how does the “neurite outgrowth in dose-response study” value (hippocampal neurons; hippocampal neurons, neurite length versus concentration) read?
A: Its value is “induced neurite outgrowth with a bell-shaped curve”.

Q: What about the “retained stimulatory effect relative to the entire (non-mutated) FG loop peptide” value (hippocampal neurons; hippocampal neurons) of the same molecule?
A: Its value is “approximately 50%”.

Q: Which “stimulation of neurite outgrowth / length of neurites” value (hippocampal neurons; hippocampal neurons) does the source give for “peptide derived from FGF2: peptide from a loop region in FGF2 similar to the heptameric NCAM peptide (AMKEDGR; FGF2)” here?
A: Its value is “to the same extent as the similar NCAM peptide”.

Q: With “TIMGLKPETRYAVR (FIII,1 domain of NCAM (Swiss-Prot P13591) FGFR binding motif) [EF loop peptide, peptide corresponding to residues T^573-R^586 of the NCAM F3 module 1]” as the molecule, how does the “binding to the immobilized FGFR modules” value (FGFR1 Ig modules 2, 3) read?
A: The value was “cannot be detected”.

Q: What about the “stimulation of neurite outgrowth / length of neurites” value (hippocampal neurons; hippocampal neurons) of the same molecule?
A: The value was “stimulate the neurite outgrowth significantly”.

Q: For `Cc1c[nH]c(/C=C2\C(=O)Nc3ccccc32)c1CCC(=O)O` [SU54402, reference compound], which “block of neurite outgrowth stimulation by the EF loop peptide” value (hippocampal neurons; hippocampal neurons) is on record?
A: The value was “specifically blocked”.

Q: “t4: truncated FGL-peptide lacking the three C-terminal amino acids (EVYVVAENQQGK; NCAM Fn III, 2 [Swiss-Prot P13591] FGFR binding motif (variant))” was tested. Which immunoreactivity [1] did it give?
A: Its immunoreactivity is 80%.

Q: Which immunoreactivity [1] does the source give for “t1: truncated FGL-peptide lacking the three N-terminal amino acids (VVAENQQGKSKA; NCAM Fn III, 2 [Swiss-Prot P13591] FGFR binding motif (variant))” here?
A: Its immunoreactivity is 40%.

Q: “dendrimeric EF loop peptide: four peptide sequences of SEQ ID NO: 9 connected to a three-lysine backbone through their C-termini (TIMGLKPETRYAVR; also: four copies linked via C-termini to three-lysine dendrimer backbone)” was tested. Which “binding to the immobilized FGFR modules” value (FGFR1 Ig modules 2, 3) did it give?
A: The value was “real-time binding”.

Q: With “YKK: the FG loop peptide in which Y^74, K^83 and K^85 were substituted with alanine (EVAVVAENQQGASAA)” as the molecule, how does the “inhibition of the stimulatory effect of the peptide by ATP” value (hippocampal neurons; 50 μM peptide, ATP 0.4, 1.0 mM) read?
A: The value was “could no longer be inhibited”.

Q: And the “stimulation of neurite outgrowth / length of neurites” value (hippocampal neurons; hippocampal neurons)?
A: The value was “retained its neuritogenic potency”.

Q: What about the “retained stimulatory effect relative to the entire (non-mutated) FG loop peptide” value (hippocampal neurons; hippocampal neurons) of the same molecule?
A: Its value is “about 60%”.

B1: NCAM F3 modules 1, 2: recombinant protein: AGHHHHHH and amino acids 507-705 of rat NCAM (swissprot p13596) (protein)
chain: AGHHHHHHQADTPSSPSIDRVEPYSSTAQVQFDEPEATGGVPILKYKAEWKSLGEEAWHSKWYDAKEANMEGIVTIMGLKPETRYAVRLAALNGKGLGEISAATEFKTQPVREPSAPKLEGQMGEDGNSIKVNLIKQDDGGSPIRHYLVKYRALASEWKPEIRLPSGSDHVMLKSLDWNAEYEVYVVAENQQGKSKAAHFVFRTSAQ
Q: How did the “binding to the immobilized FGFR modules” value (FGFR1 Ig modules 2, 3) turn out when B1 was run?
A: The value was “binds”.

Q: What about the coefficient of dissociation (FGFR1 Ig modules 2, 3) of the same molecule?
A: Its coefficient of dissociation is 5.56±0.07×10^−3 s^−1.

B2: NCAM Ig modules 1, 2 and 3: control protein: RV and amino acids 20-308 of rat NCAM, swissprot p13596 (protein)
chain: RVLQVDIVPSQGEISVGESKFFLCQVAGDAKDKDISWFSPNGEKLSPNQQRISVVWNDDDSSTLTIYNANIDDAGIYKCVVTAEDGTQSEATVNVKIFQKLMFKNAPTPQEFKEGEDAVIVCDVVSSLPPTIIWKHKGRDVILKKDVRFIVLSNNYLQIRGIKKTDEGTYRCEGRILARGEINFKDIQVIVNVPPTVQARQSIVNATANLGQSVTLVCDADGFPEPTMSWTKDGEPIENEEEDDEKHIFSDDSSELTIRNVDKNDEAEYVCIAENKAGEQDASIHLKVFAK
Q: B2 was tested. Which “binding to the immobilized FGFR modules” value (FGFR1 Ig modules 2, 3) did it give?
A: The value was “does not bind”.
